The numbers were not newly measured in US7610153B2, “Multi-drug titration and evaluation” (Virginia Commonwealth University, priority 2002, dated 2009), which cites them from elsewhere.

The conditions of the data set: literature.

Molecules are shown by their SMILES.

In the case of `CN(C)C(=N)N=C(N)N` [metformin], the hypoglycemia result is on record as “does not cause hypoglycemia”. In addition, the “decrease in fasting and postprandial glycemia” value (type 2 diabetes) was 60 to 70 mg/dL.
